Data set [1] has as its target T1, human P2Y6 receptor (Homo sapiens, UniProt Q15077). As to conditions: cited from earlier work.
A further data set addresses human P2Y14 receptor. As to conditions: read-out: EC50 at the P2Y14 receptor; cited from earlier work.
In data set [2] the target is T1, human P2Y6 receptor. Format: cell-based.
The target of data set [3] is T1, human P2Y6 receptor. Put plainly: PLC activation. The data set is classed as cell-based. The settings on record: for activity at the P2Y6 receptor: 1321N1 cells; for Pharmacological properties at hP2Y6 receptor: summary in words, Table 4.
In data set [4] the target is T2, human P2Y2 receptor (Homo sapiens, UniProt P41231). Briefly: PLC activation. The data set is classed as cell-based.
T2 sequence (P41231 whole entry): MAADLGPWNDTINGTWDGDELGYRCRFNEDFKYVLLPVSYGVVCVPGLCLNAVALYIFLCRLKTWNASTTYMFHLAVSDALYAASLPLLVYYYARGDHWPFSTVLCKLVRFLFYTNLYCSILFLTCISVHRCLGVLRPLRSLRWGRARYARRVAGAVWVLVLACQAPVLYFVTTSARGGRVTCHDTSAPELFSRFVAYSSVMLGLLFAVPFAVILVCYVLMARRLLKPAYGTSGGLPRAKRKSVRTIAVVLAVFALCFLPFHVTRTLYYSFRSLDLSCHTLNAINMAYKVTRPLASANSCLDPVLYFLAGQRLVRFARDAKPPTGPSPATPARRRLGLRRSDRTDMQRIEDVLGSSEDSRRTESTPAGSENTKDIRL
The target of a further data set is human P2Y4 receptor (Homo sapiens, UniProt P51582). The settings on record: read-out: EC50 hP2Y4; ref Kim et al.[26]; cited from earlier work.
Sequence of human P2Y4 receptor (P51582 whole entry): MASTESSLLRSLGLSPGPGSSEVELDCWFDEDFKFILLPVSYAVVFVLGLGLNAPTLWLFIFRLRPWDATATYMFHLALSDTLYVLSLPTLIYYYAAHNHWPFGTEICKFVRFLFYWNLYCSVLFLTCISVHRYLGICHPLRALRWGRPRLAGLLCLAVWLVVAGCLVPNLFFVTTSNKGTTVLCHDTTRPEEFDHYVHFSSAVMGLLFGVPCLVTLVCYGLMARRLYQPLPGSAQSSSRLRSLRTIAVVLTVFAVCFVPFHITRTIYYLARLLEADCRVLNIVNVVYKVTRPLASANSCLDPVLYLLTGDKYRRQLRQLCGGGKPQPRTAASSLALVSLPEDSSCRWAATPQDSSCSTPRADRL
For data set [5], the target named is T2, human P2Y2 receptor. The settings on record: read-out: EC50 hP2Y2; ref Kim et al.[26]; cited from earlier work.
Data set [6] is described as follows: Stability in acidic aqueous solution. As to conditions: HCl buffer (pH 1.2). Format: physicochemical.
Where [7] appears, read: ratio of EC50 values, PLC activation.

Where a name gives a salt, the structure may show the parent alone. Read-outs that look alike come from different tables or passages of the source. Where only a bound is given, the exact number is not on record here.

As a reminder, the EC50 is the concentration at which the effect is half-maximal. The half-life is the time needed for the level to fall by half in the phase considered. Low values mean rapid decline, high ones slow decline.

T1 sequence (Q15077 whole entry): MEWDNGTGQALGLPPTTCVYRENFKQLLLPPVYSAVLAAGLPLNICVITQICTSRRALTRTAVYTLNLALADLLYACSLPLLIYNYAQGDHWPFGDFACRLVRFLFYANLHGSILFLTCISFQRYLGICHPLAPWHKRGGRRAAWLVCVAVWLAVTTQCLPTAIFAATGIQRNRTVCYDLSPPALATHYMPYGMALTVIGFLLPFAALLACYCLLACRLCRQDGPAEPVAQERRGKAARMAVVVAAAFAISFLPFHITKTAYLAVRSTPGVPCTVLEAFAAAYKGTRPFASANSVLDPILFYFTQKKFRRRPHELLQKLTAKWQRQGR

With `Nc1ccn([C@@H]2O[C@H](COP(=O)(O)OP(=O)(O)O)[C@@H](O)[C@H]2O)c(=O)n1` [CDP], the “activity at the human P2Y6 receptor” value at human P2Y6 receptor [1] is “nearly inactive”. For the same compound, the EC50 on human P2Y14 receptor was greater than 10000 nM.
Regarding `O=c1ccn([C@@H]2O[C@H](COP(=O)(O)OP(=O)(O)O)[C@@H](O)[C@H]2O)c(=O)[nH]1` [Compound 1, uridine-5′-diphosphate], the midpoint of the response at human P2Y6 receptor [2], the EC50, lay at 200 nM.
The same measure, in the same setting: with `O=c1[nH]c(=O)n([C@@H]2O[C@H](COP(=O)(O)OP(=O)(O)O)[C@@H](O)[C@H]2O)cc1I` [Compound 3, 5-iodo-UDP] the figure was 50 nM.
In the case of `N.O=c1ccn([C@@]23C[C@H]2[C@H](COP(=O)(O)OP(=O)(O)O)[C@@H](O)[C@H]3O)c(=O)[nH]1` [Compound 7, (S)-Methanocarba-uridine-5′-diphosphate triethylammonium salt], at human P2Y6 receptor [3] (ratio of EC50 values), the “gain of potency at the P2Y6 receptor over (S)-methanocarba-2′-deoxy-UDP 6” value is recorded as 5 fold and the “gain of potency at the P2Y6 receptor over UDP 1” value was determined as 7 fold.
Consider `O=c1ccn([C@H]2[C@H](O)[C@H](O)[C@@]3(COP(=O)(O)OP(=O)(O)O)C[C@H]23)c(=O)[nH]1` [Compound 8, (N)-methanocarba UDP], for which the “activity at the P2Y6 receptor” value on human P2Y6 receptor [1] (previously found) was “inactive”.
For `CCN(CC)CC.O=c1ccn([C@@]23C[C@H]2[C@@H]2COP(=O)(O)OP(=O)(O)O[C@H]2[C@H]3O)c(=O)[nH]1` [Compound 9, (S)-Methanocarba-uridine-3′, 5′-cyclic diphosphate triethylammonium salt], the “activity at the P2Y6 receptor” value at human P2Y6 receptor [3] (PLC activation) is “inactive”.
In the case of `CCN(CC)CC.CO/N=c1/ccn([C@@H]2O[C@H](COP(=O)(O)OP(=O)(O)O)[C@@H](O)[C@H]2O)c(=O)[nH]1` [Compound 12, N^4-Methoxycytidine-5′-diphosphate ammonium salt], the “selectivity P2Y6 versus P2Y14 receptor” value at human P2Y6 receptor [3] (PLC via P2Y6 versus inhibition of cyclic AMP accumulation in HEK-293 cells expressing hP2Y14) was 47 fold. In addition, the “gain of potency at the P2Y6 receptor over UDP 1” value on human P2Y6 receptor [3] (ratio of EC50 values) came out at 4 fold. The “selectivity P2Y6 versus P2Y2 receptor” value on human P2Y6 receptor [3] (setting [7]) is 51 fold. Moreover, the “Pharmacological properties at hP2Y6 receptor” value (“Pharmacological properties” for short) on human P2Y6 receptor [3] is “selective, potent agonist”.
On human P2Y6 receptor [3], `CCO/N=c1/ccn([C@@H]2O[C@H](COP(=O)(O)OP(=O)(O)O)[C@@H](O)[C@H]2O)c(=O)[nH]1` [Compound 13, N^4-Ethoxycytidine-5′-diphosphate ammonium salt] showed an EC50 of 104 ± 23 nM.
Still for that read-out and setting: the result for `CC(C)(C)O/N=c1/ccn([C@@H]2O[C@H](COP(=O)(O)OP(=O)(O)O)[C@@H](O)[C@H]2O)c(=O)[nH]1` [Compound 14, N^4-t-Butyloxycytidine-5′-diphosphate ammonium salt] reads 2550 ± 700 nM.
Regarding `CCN(CC)CC.O=c1[nH]/c(=N\OCc2ccccc2)ccn1[C@@H]1O[C@H](COP(=O)(O)OP(=O)(O)O)[C@@H](O)[C@H]1O` [Compound 15, N^4-Benzyloxycytidine-5′-diphosphate ammonium salt], the “Pharmacological properties” value at human P2Y6 receptor [3] is “selective, potent agonist”.
For `CO/N=c1/ccn([C@@H]2O[C@H](COP(=O)(O)CP(=O)(O)O)[C@@H](O)[C@H]2O)c(=O)[nH]1` [Compound 16, N^4-Methoxycytidine-5′-α,β-methylenediphosphate triethylammonium salt], the EC50 at human P2Y6 receptor [3] is 678 ± 18 nM; on human P2Y2 receptor [4], greater than 10000 nM.
As to `O=c1ccn([C@@H]2O[C@H](COP(=O)(O)OP(=O)(O)OP(=O)(O)O)[C@@H](O)[C@H]2O)c(=O)[nH]1` [Compound 17, uridine-5′-triphosphate, reference compound], the “Pharmacological properties” value at human P2Y6 receptor [3] was “~inactive”.
Turning to `O=c1ccn(C2C(O)C(O)C3(COP(=O)(O)OP(=O)(O)OP(=O)(O)O)CC23)c(=O)[nH]1` (stereo not drawn) [Compound 19, (N)-methanocarba UTP], the EC50 was 85 ± 5 nM at human P2Y4 receptor; greater than 10000 nM at human P2Y6 receptor [1] (read-out: EC50 hP2Y6, NE = no effect at 10 μM, ref Kim et al.[26]); 16 ± 7 nM on human P2Y2 receptor [5].
Take `CCN(CC)CC.CO/N=c1\ccn([C@@H]2O[C@H](COP(=O)(O)OP(=O)(O)OP(=O)(O)O)[C@@H](O)[C@H]2O)c(=O)[nH]1` [Compound 20, N^4-Methoxycytidine-5′-triphosphate ammonium salt]: the “gain of potency at the P2Y6 receptor over UTP 17” value at human P2Y6 receptor [3] (ratio of EC50 values) was greater than 100 fold.
In data set [6], `O=c1ccn([C@@H]2O[C@H](COP(=O)(O)OP(=O)(O)OP(=O)(O)OC[C@H]3O[C@@H](n4ccc(=O)[nH]c4=O)[C@H](O)[C@@H]3O)[C@@H](O)[C@H]2O)c(=O)[nH]1` [Compound 21, Up3U] gave a half-life at 0.2 mg/mL of 218 h. This compound also had an EC50 on human P2Y6 receptor [2] of 370 nM. Further, the “Pharmacological properties” value at human P2Y6 receptor [3] was “moderately potent agonist, only 4-5 fold selective”.
For `CCN(CC)CC.O=c1ccn([C@@H]2O[C@H](COP(=O)(O)CP(=O)(O)OP(=O)(O)OC[C@H]3O[C@@H](n4ccc(=O)[nH]c4=O)[C@H](O)[C@@H]3O)[C@@H](O)[C@H]2O)c(=O)[nH]1` [Compound 22, P^1,P^3-Di(uridine-5′-)α,β-methylenetriphosphate triethylammonium salt], the “reduction of P2Y6 receptor potency relative to Up3U 21” value at human P2Y6 receptor [3] (ratio of EC50 values) is 5 fold. The “Pharmacological properties” value at human P2Y6 receptor [3] was “weak agonist, selective”.
For the compound `CCN(CC)CC.CO/N=c1/ccn([C@@H]2O[C@H](COP(=O)(O)OP(=O)(O)OP(=O)(O)OC[C@H]3O[C@@H](n4ccc(=O)[nH]c4=O)[C@H](O)[C@@H]3O)[C@@H](O)[C@H]2O)c(=O)[nH]1` [Compound 23, N^4-methoxy-Cp3U], at human P2Y6 receptor [2], the EC50 came to 83 nM. The “enhancement of P2Y6 receptor potency relative to Up3U 21” value on human P2Y6 receptor [3] (ratio of EC50 values) turned out to be 22 fold. Also, the “Pharmacological properties” value at human P2Y6 receptor [3] is listed as “selective, potent agonist”.
Take `CONc1ccn([C@@H]2O[C@H](COP(=O)(O)OP(=O)(O)OP(=O)(O)OC[C@H]3O[C@@H](n4ccc(NOC)nc4=O)[C@H](O)[C@@H]3O)[C@@H](O)[C@H]2O)c(=O)n1` [Compound 24, N^4-OMe-Cp3(N^4-OMe)C]: it took 630 nM to reach a half-maximal effect on human P2Y6 receptor [2] (EC50).
As for `CCN(CC)CC.O=c1ccn([C@@H]2O[C@H](COP(=O)(O)OP(=O)(O)OP(=O)(O)OC3CCCCC3)[C@@H](O)[C@H]2O)c(=O)[nH]1` [Compound 25, P^1-Uridine-5′-P^3-cyclohexyl-triphosphate triethylammonium salt], the “Pharmacological properties” value at human P2Y6 receptor [3] is recorded as “weak agonist, nonselective vs. P2Y2 receptor”.
The same measure, in the same setting: with `CCN(CC)CC.O=c1ccn([C@@H]2O[C@H](COP(=O)(O)OP(=O)(O)OP(=O)(O)Oc3ccccc3)[C@@H](O)[C@H]2O)c(=O)[nH]1` [Compound 26, P^1-Uridine-5′-P^3-phenyl-triphosphate triethylammonium salt] the entry was “weak agonist, selective”.
On to `CCN(CC)CC.O=c1ccn([C@@H]2O[C@H](COP(=O)(O)OP(=O)(O)OP(=O)(O)O[C@H]3O[C@H](CO)[C@@H](O)[C@H](O)[C@H]3O)[C@@H](O)[C@H]2O)c(=O)[nH]1` [Compound 27, P^1-Uridine-5′-P^3-[1]glucose-1′-triphosphate triethylammonium salt], for which the “activity at the P2Y6 receptor” value is “only weakly activated” on human P2Y6 receptor [3] (PLC activation) and “inactive” at human P2Y6 receptor [3] (PLC activation, listed as UTP-glucose). Also, the “Pharmacological properties” value on human P2Y6 receptor [3] is “~inactive”.
For the compound `CCN(CC)CC.O=C(Cn1c(=O)ccn([C@@H]2O[C@H](COP(=O)(O)OP(=O)(O)OP(=O)(O)O[C@H]3O[C@H](CO)[C@@H](O)[C@H](O)[C@H]3O)[C@@H](O)[C@H]2O)c1=O)c1ccccc1` [Compound 30, 3-Phenacyluridine-5′-glucose-1′-triphosphate triethylammonium salt], the “activity at the P2Y6 receptor” value on human P2Y6 receptor [3] (PLC activation) is “only weakly active”.
On to `CCN(CC)CC.O=c1ccn([C@@H]2O[C@H](COP(=O)(O)CP(=O)(O)OP(=O)(O)O[C@H]3O[C@H](CO)[C@@H](O)[C@H](O)[C@H]3O)[C@@H](O)[C@H]2O)c(=O)[nH]1` [Compound 31, Uridine-5′-glucose-1′-α,β-methylenetriphosphate triethylammonium salt], for which the “activity at the P2Y6 receptor” value on human P2Y6 receptor [3] (PLC activation) was “only weakly active”. For the same compound, the “Pharmacological properties” value at human P2Y6 receptor [3] was “~inactive”.
On to `CCN(CC)CC.CO/N=c1/ccn([C@@H]2O[C@H](COP(=O)(O)OP(=O)(O)OP(=O)(O)O[C@H]3O[C@H](CO)[C@@H](O)[C@H](O)[C@H]3O)[C@@H](O)[C@H]2O)c(=O)[nH]1` [Compound 32, N^4-Methoxycytidine-5′-glucose-1′-triphosphate triethylammonium salt], for which, on human P2Y6 receptor [3] (setting [7]), the “selectivity P2Y6 versus P2Y2 receptor” value is listed as greater than 100 fold and the “selectivity P2Y6 versus P2Y4 receptor” value is greater than 100 fold.
As to `CCN(CC)CC.CO/N=c1/ccn([C@@H]2O[C@H](COP(=O)(O)OP(=O)(O)OP(=O)(O)Oc3ccccc3)[C@@H](O)[C@H]2O)c(=O)[nH]1` [Compound 33, N^4-Methoxycytidine-5′-phenyl-triphosphate triethylammonium salt], the “activity at the P2Y6 receptor” value at human P2Y6 receptor [3] (PLC activation) is on record as “weakly activated”.

Source of the values: paper PMC2935147 (Journal of medicinal chemistry, 2010).
